{"source": "patent US9580330B2", "about": "“Anhydrous, amorphous and porous magnesium carbonates and methods of production thereof” (DISRUPTIVE MATERIALS AB, priority 2012, dated 2017)", "key": {"[1]": {"assay": "Thermal gravimetric analysis (TGA) of Example 28 samples", "format": "physicochemical", "conditions": "air flow, 3 K min^−1", "description": "Thermal gravimetric analysis (TGA) was carried out on a Mettler Toledo, model TGA/SDTA851e, under an air flow in an inert alumina cup. The samples were heated from room temperature to 600° C. with a heating rate of 3 K min^−1."}, "[2]": {"assay": "Drug release measurement, USP-2 dissolution bath", "format": "physicochemical", "conditions": "phosphate buffer pH 6.8, 37° C., 50 rpm, 17.5 mg ibuprofen in 500 mL", "description": "Drug Release Measurement: The release of ibuprofen was carried out in a USP-2 dissolution bath (Sotax AT7 Smart, Sotax AG, Switzerland) equipped with 1000 mL vessels (37° C., 50 rpm). Samples with a total drug content of 17.5 mg ibuprofen were placed in vessels containing 500 mL phosphate buffer (pH=6.8). […] Aliquots of 3 mL were withdrawn from each vessel at regular intervals for 125 min and the drug concentration in the liquid samples was analysed using UV/vis absorbance spectroscopy (1650PC, Shimadzu Corporation, Kyoto, Japan)."}}}
{"smiles": "CC(C)Cc1ccc(C(C)C(=O)O)cc1", "note": "(centres unmarked) [free ibuprofen, ibuprofen]", "values": [{"measurement": "decomposition temperature of ibuprofen", "setting": "[1]", "value": "about 200 °C"}, {"measurement": "time until about 50% of the ibuprofen is dissolved", "setting": "[2]", "value": "about 30 minutes"}]}
